{"source": "paper PMC6770473", "about": "“Proximity ligation assay to study protein–protein interactions of proteins on two different cells” (Biotechniques, 2018)", "molecules": {"B1": {"name": "CD2: T-cell surface adhesion protein, binding partner of CD58 (protein)", "chain": "KEITNALETWGALGQDINLDIPSFQMSDDIDDIKWEKTSDKKKIAQFRKEKETFKEKDTYKLFKNGTLKIKHLKTDDQDIYKVSIYDTKGKNVLEKIFDLKIQERVSKPKISWTCINTTLTCEVMNGTDPELNLYQDGKHLKLSQRVITHKWTTSLSAKFKCTAGNKVSKESSVEPVSCPEKGLDIYLIIGICGGGSLLMVFVALLVFYITKRKKQRSRRNDEELETRAHRVATEERGRKPHQIPASTPQNPATSQHPPPPPGHRSQAPSHRPPPPGHRVQHQPQKRPPAPSGTQVHQQKGPPLPRPRVQPKPPHGAAENSLSPSSN"}}, "key": {"CD2–CD58 interaction [1]": {"test_system": "CD2–CD58 interaction", "assay": "Proximity ligation assay (PLA), Jurkat T cells / HFLS-RA cells co-culture", "format": "cell-based, human", "conditions": "for PPI inhibition by BODIPY conjugate (red fluorescence): BODIPY conjugate of SFTI-a, concentration not printed, compared to control without any peptide; for reduction in number of red dots: compared with control, p < 0.001; for PPI inhibition, number of red dots (ImageJ): vs untreated wells, p < 0.0001 (SAS, GLM)", "experimental": "(§1) • Both T cells and HFLS-RA cells were grown to 70% confluency. • Approximately 20,000 Jurkat cells were added to each well, and the chamber slides were incubated for 30 min at 37°C with 5% CO2. • Approximately 10,000 HFLS-RA cells were treated with different concentrations of SFTI-a peptide separately for 2 h at 4°C and added over Jurkat cells that were previously coated onto the well chamber slides. • The slides were incubated for 48 h at 37°C with 5% CO2.\n• The medium was gently removed from the corners of the wells. • Enough chilled methanol to cover the surface was added to each well for fixing the cells. • After incubating the slides for 15 min at −20°C, the methanol was removed, and PBS was used to hydrate the slides. • The slides were washed once more with PBS. • Two drops of blocking solution was added to each well, and they were incubated for 90 min at room temperature in a moist chamber.\n• The blocking solution was removed, and the slides were washed gently with PBS. • The CD58 and CD2 (Santa Cruz Biotechnology) primary antibodies were used at a dilution of […] by diluting with antibody diluent solution provided in kit (2 μl [CD58 Ab] + 2 μl [CD2 Ab] + 196 μl antibody diluent solution per well). • After addition of primary antibody solution, the slides were incubated overnight at 4°C in a moist chamber with gentle shaking.\n• The primary antibody solution was removed, and each well was washed very gently with 100 μl of PBS. • The probe solution was prepared using 1:1:4 ratio of positive probe:negative probe:antibody diluent solution, respectively. • After removing PBS, approximately 80 μl of probe solution was added to each well, which were incubated at 37°C for 1 h in a moist chamber.\n• The probe solution was discarded, and all wells were washed twice with 100 μl of wash buffer A. • Ligase solution was prepared by mixing together 16 μl of ligation solution + 2 μl of ligase + 62 μl of high purified water. • 80 μl of this freshly prepared ligase solution was added gently to each well, which were incubated at 37°C for 30 min in a moist chamber.\n• All procedures from this step forward were carried out in a dark (light-protected) environment. • After removing the ligase solution, the wells were washed gently twice with wash buffer A. • Amplification/polymerase solution was prepared by mixing together 1 μl polymerase + 16 μl amplification (red) solution + 63 μl purified water. • 80 μl of the above solution was added to each well in the dark, and the plates were incubated in a 37°C moist chamber in the dark for 100 min.\n• Amplification/polymerase solution was removed from each well, and they were washed gently twice with 120 μl of wash buffer B. • 0.01x wash buffer B (in phosphate-buffered saline [PBS]) was prepared, and each well was washed with this solution. • The well on slides were removed (wells are removed after all the washing step to prepare the slide for microscopic imaging). • Keeping the slide surface slightly wet with 0.01x wash buffer B, a small amount of mounting medium with DAPI solution was added to the slide. • Coverslips were placed over the slides, and images were obtained by using an Olympus Fluoview 1.0 confocal microscope with DAPI and Texas Red filters.\nWash buffers A and B were provided in the kit. The composition of the buffers is not disclosed by the vendor. A bio-protocol by Lin et al. provides the composition of Duolink in situ buffers A and B. The incubation time of 48 h was established by carrying out PLA at 24- and 48-h times.\nControl experiments were conducted with HFLS-RA cells and T cells without addition of primary antibodies to CD2 and CD58 but with addition of secondary antibodies and PLA probes. Experiments were performed as described in steps 1–7 above.\nExperiments with HFLS-RA cells and T cells were carried out as described above by adding primary and secondary antibodies only to CD58 and with PLA probes. […]"}, "[2]": {"test_system": "CD58 on the cell surface of HFLS-RA cells", "assay": "Binding of SFTI-a BODIPY conjugate to HFLS-RA cells (fluorescence microscopy)", "format": "cell-based, human", "conditions": "green fluorescence of BODIPY, Mg+ green filter (excitation 507, emission 531), 60x, concentration not given", "experimental": "Synthesis of cyclic peptide SFTI-a, Cyclo(CKASAPPSCYDGDD), was carried out in three major steps: 1) Linear sequence synthesis with an automatic peptide synthesizer (Protein Technologies, Inc., AZ, USA); 2) head-to-tail cyclization; and 3) disulfide bond formation. For fluorescent labeling of peptide SFTI-a, Lys in the peptide sequence was replaced with Lys containing an azide side chain. The azide side chain was used to conjugate fluorescent label 4,4-difluoro-4-bora-3a,4a-diaza-s-indacene (BODIPY), resulting in the conjugate Cyclo(CK-(BODIPY)-ASAPPSCYDGDD). The detailed procedure for synthesis of the peptide is described in our previous work. Peptides SFTI-a and SFTI-a with lysine azide (N3) and fluorescence-labeled SFTI-a were purified by preparative HPLC (Waters Corp., MA, USA) using acetonitrile and water containing 0.1% TFA. Molecular weights of the synthesized peptide and the conjugate were confirmed by mass spectrometry. BODIPY was obtained from Dr Vicente, Department of Chemistry, Louisiana State University, LA, USA.\nas §1\nThe microscopic visualization was carried out on an Olympus Fluoview FV10i confocal microscope. DAPI (excitation 359, emission 461) and Texas Red (excitation 595, emission 612) filters were used for detection purposes at 60x zoom. For SFTI-a BODIPY conjugate, a Mg+ green (excitation 507, emission 531) filter was used. Different images were taken from each well containing different concentrations of SFTI-a and cells only. All images were taken in a single plane and at 60x magnification."}, "CD2–CD58 interaction [3]": {"test_system": "CD2–CD58 interaction", "conditions": "cited from earlier work", "source_text": "(§2) In almost all physiological processes, the medium for communication between two cells is facilitated by the interaction of proteins. The up- or down-regulation of proteins and the deregulated interaction of these proteins usually lead to disease conditions. Rational drug designs targeting these protein–protein interactions (PPI) have gained much popularity in the past decade. […] Many proteins interact at the cell surface to send signals inside the cell from the extracellular region, and PPI on the cell surface are targ ..."}, "CD58 protein": {"test_system": "CD58 protein", "conditions": "cited from earlier work", "source_text": "as §2"}, "[4]": {"test_system": "cell adhesion in the immune response", "conditions": "cell-based in vitro and ex vivo assays; cited from earlier work", "source_text": "as §2"}, "CD58 adhesion domain": {"target": "CD58 adhesion domain", "conditions": "relatively weak but highly specific interaction; background statement, reference printed only at the preceding sentence; read-out: Kd of CD2–CD58 interaction; cited from earlier work", "source_text": "as §2"}, "[5]": {"conditions": "listed as BODIPY conjugate of SFTI-a"}}, "note": "“Also recorded” adds a separate entry of the source.", "data": [{"molecule": "Cyclo(CK-(BODIPY)-ASAPPSCYDGDD) (bicyclic or more) [SFTI-a conjugate, fluorescently labeled peptide with BODIPY attachment via azide side chain of Lys]", "values": [{"measurement": "PPI inhibition by BODIPY conjugate (red fluorescence)", "setting": "CD2–CD58 interaction [1]", "value": "inhibit the interaction between Jurkat cells and HFLS-RA cells"}, {"measurement": "PPI inhibition by BODIPY conjugate (red fluorescence)", "setting": "CD2–CD58 interaction [1]; [5]", "value": "able to inhibit PPI as shown by a decrease in red fluorescence compared to control"}, {"measurement": "binding to CD58 on HFLS-RA cell surface", "setting": "[2]", "value": "bound to the cell surface of HFLS-RA cells as shown by green fluorescence of BODIPY"}, {"measurement": "binding to CD58 on HFLS-RA cell surface", "setting": "[2]; [5]", "value": "green fluorescence on HFLS-RA cells due to binding of a conjugate of SFTI-a to CD58 on cells"}]}, {"molecule": "Cyclo(CKASAPPSCYDGDD) (bicyclic or more) [SFTI-a]", "values": [{"measurement": "reduction in number of red dots", "setting": "CD2–CD58 interaction [1]; 50 nM SFTI-a", "value": "significant reduction in a number of red dots"}, {"measurement": "reduction in number of red dots", "setting": "CD2–CD58 interaction [1]; 250 nM SFTI-a", "value": "significant reduction in a number of red dots"}, {"measurement": "PPI inhibition, number of red dots (ImageJ)", "setting": "CD2–CD58 interaction [1]; 10 μM SFTI-a", "value": "significant in comparison with that of untreated wells"}, {"measurement": "PPI inhibition, number of red dots (ImageJ)", "setting": "CD2–CD58 interaction [1]; 50 μM SFTI-a", "value": "significant in comparison with that of untreated wells"}, {"measurement": "decrease in red dots (CD2–CD58 PPI inhibition)", "setting": "CD2–CD58 interaction [1]; 100 μM SFTI-a, HFLS-RA cells treated 2 h at 4°C, added over Jurkat cells, 48 h at 37°C, confocal microscopy 60x, vs cells without peptide", "value": "significant decrease in red dots; also recorded: decrease in the number of red dots"}, {"measurement": "PPI inhibition, number of red dots (ImageJ)", "setting": "CD2–CD58 interaction [1]; 100 μM SFTI-a", "value": "significant in comparison with that of untreated wells"}, {"measurement": "PPI inhibition at different concentrations (dose dependence)", "setting": "CD2–CD58 interaction [1]; different concentrations of SFTI-a (50 nM, 250 nM, 1 μM, 10 μM, 50 μM, 100 μM), HFLS-RA cells treated 2 h at 4°C, co-culture with Jurkat cells 48 h at 37°C, red dots", "value": "significant decrease in bright red spots; also recorded: dose-dependent inhibition of the interaction between CD2 and CD58 proteins"}, {"measurement": "binding to CD58 on HFLS-RA cell surface", "setting": "[2]", "value": "bind to CD58 on the cell surface"}, {"measurement": "inhibition of CD2–CD58 interaction", "setting": "CD2–CD58 interaction [3]", "value": "inhibits CD2–CD58 interaction"}, {"measurement": "binding to CD58", "setting": "CD58 protein", "value": "binds to the CD58 protein"}, {"measurement": "inhibition of cell adhesion in the immune response, suppression of T-cell immune response", "setting": "[4]", "value": "potent compound for inhibiting cell adhesion in the immune response"}]}, {"molecule": "B1", "values": [{"measurement": "Kd", "setting": "CD58 adhesion domain", "value": "1 to 10", "unit": "µM"}]}]}
